According to patent US8980830B2 (priority 2007, dated 2015):
Bridge positions count the residues as written; N and C are the ends. Square brackets hold non-standard residues; d marks the D form. Peptide text beside a SMILES is read from it. PhLac = O=C(O)[C@@H](O)Cc1ccccc1

Key:
[1] = target: Glucagon Receptor (Homo sapiens, UniProt P47871); assay: cAMP inhibition: antagonism of glucagon-induced cAMP at glucagon receptor; format: cell-based; parameters: expressed in transfected cells; host or cells: HEK293
Sequence of Glucagon Receptor (P47871 26-477): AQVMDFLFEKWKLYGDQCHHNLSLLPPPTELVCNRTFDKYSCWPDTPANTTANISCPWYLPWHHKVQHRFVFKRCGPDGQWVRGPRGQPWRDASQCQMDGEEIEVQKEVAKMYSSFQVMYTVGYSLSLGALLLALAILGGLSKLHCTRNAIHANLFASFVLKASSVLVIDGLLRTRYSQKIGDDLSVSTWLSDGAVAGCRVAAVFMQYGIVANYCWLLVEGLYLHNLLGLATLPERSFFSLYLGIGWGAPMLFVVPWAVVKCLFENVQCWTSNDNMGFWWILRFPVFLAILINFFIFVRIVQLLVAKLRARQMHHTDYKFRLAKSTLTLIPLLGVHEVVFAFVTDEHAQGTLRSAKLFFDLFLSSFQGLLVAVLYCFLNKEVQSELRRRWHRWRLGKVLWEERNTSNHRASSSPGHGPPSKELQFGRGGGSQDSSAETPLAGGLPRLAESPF

[2] = target: GLP-1 Receptor (Homo sapiens, UniProt P43220); assay: Functional assay, cAMP induction (luciferase reporter, HEK293) at GLP-1 receptor; format: cell-based; conditions: GLP-1 agonism EC50 (nM)
Sequence of GLP-1 Receptor (P43220 24-463): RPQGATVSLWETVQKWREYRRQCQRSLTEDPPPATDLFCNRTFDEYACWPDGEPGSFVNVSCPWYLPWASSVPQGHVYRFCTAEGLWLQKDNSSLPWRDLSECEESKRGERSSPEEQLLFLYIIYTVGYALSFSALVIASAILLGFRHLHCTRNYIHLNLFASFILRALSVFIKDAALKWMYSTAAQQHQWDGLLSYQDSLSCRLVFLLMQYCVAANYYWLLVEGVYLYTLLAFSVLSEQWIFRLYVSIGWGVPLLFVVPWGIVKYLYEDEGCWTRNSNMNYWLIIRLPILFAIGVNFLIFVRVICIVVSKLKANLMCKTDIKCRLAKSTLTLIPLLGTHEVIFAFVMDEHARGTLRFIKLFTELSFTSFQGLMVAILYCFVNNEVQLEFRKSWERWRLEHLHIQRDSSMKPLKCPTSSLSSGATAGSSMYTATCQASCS

CSCC[C@H](NC(=O)[C@H](CC(C)C)NC(=O)[C@H](Cc1c[nH]c2ccccc12)NC(=O)[C@H](CCC(N)=O)NC(=O)[C@@H](NC(=O)[C@H](Cc1ccccc1)NC(=O)[C@H](CC(=O)O)NC(=O)[C@H](CCC(N)=O)NC(=O)[C@H](C)NC(=O)[C@H](CCCNC(=N)N)NC(=O)[C@H](CCCNC(=N)N)NC(=O)[C@@H]1CCC(=O)NCCCC[C@H](NC(=O)[C@H](CO)NC(=O)[C@H](Cc2ccc(O)cc2)NC(=O)[C@H](CC(=O)O)NC(=O)[C@H](CO)NC(=O)[C@@H](NC(=O)[C@@H](O)Cc2ccccc2)[C@@H](C)O)C(=O)N[C@@H](Cc2ccc(O)cc2)C(=O)N[C@@H](CC(C)C)C(=O)N[C@@H](CC(=O)O)C(=O)N1)C(C)C)C(=O)N[C@@H](CC(=O)O)C(=O)N[C@H](C(N)=O)[C@@H](C)O [[PLA6, D9, K12E16(Lactam), D28]G(6-29)] (H-[PhLac]TSDYSKYLDERRAQDFVQWLMDT-NH2; lactam 7-11)
IC50 ([1]; Glucagon antagonism IC50 (nM, inhibit 0.2-0.8 nM glucagon), Table 17): 58.3 ± 3.3 nM
EC50 ([2]; Table 17): 38.5 ± 7.6 nM

CSCC[C@H](NC(=O)[C@H](CC(C)C)NC(=O)[C@H](Cc1c[nH]c2ccccc12)NC(=O)[C@H](CCC(N)=O)NC(=O)[C@@H](NC(=O)[C@H](Cc1ccccc1)NC(=O)[C@H](CC(=O)O)NC(=O)[C@H](CCCCN)NC(=O)[C@H](C)NC(=O)[C@H](CCCNC(=N)N)NC(=O)[C@H](CCCNC(=N)N)NC(=O)[C@H](CCC(=O)O)NC(=O)[C@H](CC(=O)O)NC(=O)[C@H](CC(C)C)NC(=O)[C@H](Cc1ccc(O)cc1)NC(=O)[C@H](CCCCN)NC(=O)[C@H](CO)NC(=O)[C@H](Cc1ccc(O)cc1)NC(=O)[C@H](CCC(=O)O)NC(=O)[C@H](CO)NC(=O)[C@@H](NC(=O)[C@@H](N)Cc1ccccc1)[C@@H](C)O)C(C)C)C(=O)N[C@@H](CC(N)=O)C(=O)N[C@H](C(=O)NCC(=O)N1CCC[C@H]1C(=O)N[C@@H](CO)C(=O)N[C@@H](CO)C(=O)NCC(=O)N[C@@H](C)C(=O)N1CCC[C@H]1C(=O)N1CCC[C@H]1C(=O)N1CCC[C@H]1C(=O)N[C@@H](CO)C(N)=O)[C@@H](C)O [[E9, E16, K20] G(6-39)]
Glucagon antagonism IC50(nM) (inhibit 0.2-0.8 nM glucagon) ([1]; Table 16, combined results of three assays): weak agonist
EC50 ([2]; Table 16): 1040 ± 11.9 nM

CSCC[C@H](NC(=O)[C@H](CC(C)C)NC(=O)[C@H](Cc1c[nH]c2ccccc12)NC(=O)[C@H](CCC(N)=O)NC(=O)[C@@H](NC(=O)[C@H](Cc1ccccc1)NC(=O)[C@H](CC(=O)O)NC(=O)[C@@H]1CCCCNC(=O)CC[C@H](NC(=O)[C@H](CC(=O)O)NC(=O)[C@H](CC(C)C)NC(=O)[C@H](Cc2ccc(O)cc2)NC(=O)[C@H](CCCCN)NC(=O)[C@H](CO)NC(=O)[C@H](Cc2ccc(O)cc2)NC(=O)[C@H](CC(=O)O)NC(=O)[C@H](CO)NC(=O)[C@@H](NC(=O)[C@H](Cc2ccccc2)OC(=O)[C@@H](NC(=O)CNC(=O)[C@H](CCC(N)=O)NC(=O)[C@@H](N)CO)[C@@H](C)O)[C@@H](C)O)C(=O)N[C@@H](CCCNC(=N)N)C(=O)N[C@@H](CCCNC(=N)N)C(=O)N[C@@H](C)C(=O)N1)C(C)C)C(=O)N[C@@H](CC(=O)O)C(=O)N[C@H](C(N)=O)[C@@H](C)O [[S2Q3-O-PLA6, D9, E16K20(Lactam), D28] G(2-29)] (H-SQGT[PhLac]TSDYSKYLDERRAKDFVQWLMDT-NH2; lactam 15-19; N-terminus assumed)
IC50 ([1]; Glucagon antagonism IC50 (nM, inhibit 0.8 nM glucagon), Table 24): 20.8 ± 3.09 nM
EC50 ([2]; Table 20): 45.7 ± 12.3 nM
